# Earlier results, collected in patent publication US20220304959A1, “TREATMENT OF LONG HAULERS SYNDROME WITH NICLOSAMIDE” (First Wave BioPharma, priority 2021, published 2022).
smiles,measurement,setting,value
"O=C(Nc1ccc([N+](=O)[O-])cc1Cl)c1cc(Cl)ccc1O [niclosamide, 5-chloro-N-(2-chloro-4-nitrophenyl)-2-hydroxybenzamide]",Overall safety profile,"administered to millions of people, including children",very good safety profile
same,"Less frequently reported AEs: rash, oral irritation, fever, rectal bleeding, weakness, bad taste in mouth, sweating, palpitation, constipation, alopecia, oedema of an arm, backache, irritability","human use, literature reports",< 1%
same,"Other reported AEs: vomiting; abdominal discomfort possibly associated with anorexia, diarrhea, drowsiness, dizziness and headache","human use, literature reports",1-4 % of patients
